The values below come from ChEMBL document CHEMBL5113537, “Discovery of β-Arrestin-Biased 25CN-NBOH-Derived 5-HT2A Receptor Agonists” (J Med Chem, 2022).

Assay [1] is filed under the species Homo sapiens. Description: Selectivity ratio of EC50 for agonist activity at human 5HT2A S159A mutant transfected in HEK293T cells assessed as beta arrestin-2 recruitment measured for 2 hrs by luminescent assay to EC50 for agonist activity at human wild type 5HT2A receptor transfected in HEK293T cells assessed as beta arrestin-2 recruitment measured for 2 hrs by luminescent assay. The class given is cell-based.

Assay [2] addresses 5-hydroxytryptamine receptor 2A (Homo sapiens) (UniProt P28223). The assay is described as follows: Agonist activity at wild type human 5HT2A transfected in HEK293T cells assessed as beta arrestin-2 recruitment measured for 2 hrs by luminescent assay. It counts as functional, cell-based. The conditions noted are these: filed as agonist. Background: Arrestin recruitment assays detect the binding of arrestin to an activated receptor.

For assay [3], the species on record is Homo sapiens. Description: Selectivity ratio of EC50 for agonist activity at human 5HT2A S159A mutant transfected in HEK293T cells assessed as mini Galphaq recruitment measured for 2 hrs by luminescent assay to EC50 for agonist activity at human wild type 5HT2A transfected in HEK293T cells assessed as mini Galphaq recruitment measured for 2 hrs by luminescent assay. It counts as cell-based.

Each structure is given as a SMILES string. Active and inactive are the calls of the source. The calls are words filed in the database; no cut-off is given here.

Sequence of 5-hydroxytryptamine receptor 2A (Homo sapiens) (P28223 whole entry): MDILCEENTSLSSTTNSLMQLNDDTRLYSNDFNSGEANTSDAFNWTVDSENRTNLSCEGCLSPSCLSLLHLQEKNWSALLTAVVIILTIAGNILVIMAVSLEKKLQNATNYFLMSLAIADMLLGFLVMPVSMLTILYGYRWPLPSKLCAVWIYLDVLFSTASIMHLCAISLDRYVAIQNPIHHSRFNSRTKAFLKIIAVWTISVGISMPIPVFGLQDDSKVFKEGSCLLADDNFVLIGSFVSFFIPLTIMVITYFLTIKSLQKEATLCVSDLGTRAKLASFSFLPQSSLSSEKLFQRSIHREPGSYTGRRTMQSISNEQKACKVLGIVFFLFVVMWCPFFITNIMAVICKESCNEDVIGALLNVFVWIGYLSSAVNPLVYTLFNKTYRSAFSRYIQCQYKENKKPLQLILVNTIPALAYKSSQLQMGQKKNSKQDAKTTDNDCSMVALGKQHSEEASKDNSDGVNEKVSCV

Take `COc1cc(CCNCc2ccccc2F)c(OC)cc1C#N`: in the assay listed under Homo sapiens [1], the Ratio EC50 amounted to 3.
`COc1cc(CCNC2COc3ccccc32)c(OC)cc1C#N` (racemic): the result in assay [2] was Active.
Consider `COc1cc(CCNCc2cccc(O)c2)c(OC)cc1Br`, for which the Ratio EC50 in the assay filed under Homo sapiens [1] worked out at 15; in the assay filed under Homo sapiens [3] it was 12.
